Measurements from US8648066B2 (Exelixis, Inc., priority 2009, dated 2014).

Target: mTOR/GbL/Raptor (mTORC1) (Homo sapiens, UniProt P42345)
Test: mTOR/GbL/Raptor (mTORC1) ELISA assay
Assay type: biochemical
Conditions: phosphorylation of 4E-BP1; 0.2 nM mTORC1, 10 μM ATP; read-out: IC50 in this assay (mTORC1 ELISA)
How it was run: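 ELISA read-out: phospho-4E-BP1 captured on Ni-chelate plates and detected with anti-phospho antibody plus HRP-anti-IgG luminescence. The kinase step ran 120 min at ambient temperature with 0.2 nM human mTORC1, 10 µM ATP, 50 nM His-4E-BP1, 10 mM MnCl2, pH 7.2 HEPES.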

Row | SMILES | IC50 [µM]
1 | CC(C)(N)CCNS(=O)(=O)c1cc(-c2ccc3c(c2)CN(c2ncnc4c2CC(C)(C)CC4)CCO3)cnc1N [Example 413, 2-amino-N-(3-amino-3-methylbutyl)-5-[4-(6,6-dimethyl-5,6,7,8-tetrahydroquinazolin-4-yl)-2,3,4,5-tetrahydro-1,4-benzoxazepin-7-yl]pyridine-3-sulfonamide] | 0.05 to 0.25
2 | CC1(C)CCc2ncnc(N3CCOc4ccc(-c5cnc(N)c(S(=O)(=O)NCCCN)c5)cc4C3)c2C1 [Example 414, 2-amino-N-(3-aminopropyl)-5-[4-(6,6-dimethyl-5,6,7,8-tetrahydroquinazolin-4-yl)-2,3,4,5-tetrahydro-1,4-benzoxazepin-7-yl]pyridine-3-sulfonamide] | 0.01 to 0.05
3 | CC1(C)CCc2ncnc(N3CCOc4ccc(-c5cnc(N)c(S(=O)(=O)NCC6CNC6)c5)cc4C3)c2C1 [Example 415, 2-amino-N-(azetidin-3-ylmethyl)-5-[4-(6,6-dimethyl-5,6,7,8-tetrahydroquinazolin-4-yl)-2,3,4,5-tetrahydreo-1,4-benzoxazepin-7-yl]pyridine-3-sulfonamide] | 0.01 to 0.05
4 | CC1(C)CCc2ncnc(N3CCOc4ccc(-c5cnc(N)c(S(=O)(=O)N[C@H]6CC[C@H](N)CC6)c5)cc4C3)c2C1 [Example 416, 2-amino-N-(trans-4-aminocyclohexyl)-5-[4-(6,6-dimethyl-5,6,7,8-tetrahydroquinazolin-4-yl)-2,3,4,5-tetrahydro-1,4-benzoxazepin-7-yl]pyridine-3-sulfonamide] | 0.05 to 0.25
5 | Cc1nc2c(c(N3CCOc4ccc(-c5cnc(N)c(S(=O)(=O)N(C)C)c5)cc4C3)n1)CC(C)(C)CC2 [Example 417, 2-amino-N,N-dimethyl-5-[4-(2,6,6-trimethyl-5,6,7,8-tetrahydroquinazolin-4-yl)-2,3,4,5-tetrahydro-1,4-benzoxazepin-7-yl]pyridine-3-sulfonamide] | 0.05 to 0.25
6 | CC1(C)CCc2ncnc(N3CCOc4ccc(-c5cnc(N)c(S(=O)(=O)NCC6(N)CC6)c5)cc4C3)c2C1 [Example 418, 2-amino-N-[(1-aminocyclopropyl)methyl]-5-[4-(6,6-dimethyl-5,6,7,8-tetrahydroquinazolin-4-yl)-2,3,4,5-tetrahydro-1,4-benzoxazepin-7-yl]pyridine-3-sulfonamide] | 0.01 to 0.05
7 | Cc1nc2c(c(N3CCOc4ccc(-c5cnc(N)c(S(=O)(=O)NCC6CCN(C)CC6)c5)cc4C3)n1)CC(C)(C)CC2 [Example 419, 2-amino-N-[(1-methylpiperidin-4-yl)methyl]-5-[4-(2,6,6-trimethyl-5,6,7,8-tetrahydroquinazolin-4-yl)-2,3,4,5-tetrahydro-1,4-benzoxazepin-7-yl]pyridine-3-sulfonamide] | 0.25 to 1
8 | CC1=Cc2ncnc(N3CCOc4ccc(-c5cnc(N)c(S(=O)(=O)NCC6CCN(C)CC6)c5)cc4C3)c2CC1(C)C [Example 420, 2-amino-N-[(1-methylpiperidin-4-yl)methyl]-5-[4-(6,6,7-trimethyl-5,6-dihydroquinazolin-4-yl)-2,3,4,5-tetrahydro-1,4-benzoaxepin-7-yl]pyridine-3-sulfonamide] | 0.25 to 1
9 | Cc1nc2c(c(N3CCOc4ccc(-c5cnc(N)c(S(=O)(=O)N[C@@H]6CCN(C)C6)c5)cc4C3)n1)CC(C)(C)CC2 [Example 421, 2-amino-N-[(3R)-1-methylpyrrolidin-3-yl]-5-[4-(2,6,6-trimethyl-5,6,7,8-tetrahydroquinazolin-4-yl)-2,3,4,5-tetrahydro-1,4-benzoxazepin-7-yl]pyridine-3-sulfonamide] | 0.25 to 1
10 | CC1=CC(C)(C)Cc2c1ncnc2N1CCOc2ccc(-c3cnc(N)c(S(=O)(=O)N[C@@H]4CCN(C)C4)c3)cc2C1 [Example 422, 2-amino-N-[(3R)-1-methylpyrrolidin-3-yl]-5-[4-(6,6,8-trimethyl-5,6-dihydroquinazolin-4-yl)-2,3,4,5-tetrahydro-1,4-benzoxazepin-7-yl]pyridine-3-sulfonamide] | 0.05 to 0.25
11 | CN(C)CCNS(=O)(=O)c1cc(-c2ccc3c(c2)CN(c2ncnc4c2CC(C)(C)CC4)CCO3)cnc1N [Example 423, 2-amino-N-[2-(dimethylamino)ethyl]-5-[4-(6,6-dimethyl-5,6,7,8-tetrahydroquinazolin-4-yl)-2,3,4,5-tetrahydro-1,4-benzoxazepin-7-yl]pyridine-3-sulfonamide] | 0.05 to 0.25
12 | CC1=Cc2ncnc(N3CCOc4ccc(-c5cnc(N)c(S(=O)(=O)NC[C@H]6CCN(C)C6)c5)cc4C3)c2CC1(C)C [Example 424, 2-amino-N-{[(3S)-1-methylpyrrolidin-3-yl]methyl}-5-[4-(6,6,7-trimethyl-5,6-dihydroquinazolin-4-yl)-2,3,4,5-tetrahydro-1,4-benzoxazepin-7-yl]pyridine-3-sulfonamide] | 0.05 to 0.25
13 | CC1(C)CCc2ncnc(N3CCOc4ccc(-c5cnc(N)c(S(=O)(=O)NC6CC7CCC(C6)N7)c5)cc4C3)c2C1 (stereo not shown) [Example 425, 2-amino-N-8-azabicyclo[3.2.1]oct-3-yl-5-[4-(6,6-dimethyl-5,6,7,8-tetrahydroquinazolin-4-yl)-2,3,4,5-tetrahydro-1,4-benzoxazepin-7-yl]pyridine-3-sulfonamide] | 0.01 to 0.05
14 | CC1(C)CCc2ncnc(N3CCOc4ccc(-c5cnc(N)c(S(=O)(=O)NC6CNC6)c5)cc4C3)c2C1 [Example 426, 2-amino-N-azetidin-3-yl-5-[4-(6,6-dimethyl-5,6,7,8-tetrahydroquinazolin-4-yl)-2,3,4,5-tetrahydro-1,4-benzoxazepin-7-yl]pyridine-3-sulfonamide] | 0.01 to 0.05
15 | CC1(C)CCc2ncnc(N3CCOc4ccc(-c5cnc(N)c(S(=O)(=O)NC6CCC6)c5)cc4C3)c2C1 [Example 427, 2-amino-N-cyclobutyl-5-[4-(6,6-dimethyl-5,6,7,8-tetrahydroquinazolin-4-yl)-2,3,4,5-tetrahydro-1,4-benzoxazepin-7-yl]pyridine-3-sulfonamide] | 0.05 to 0.25
16 | CN(C)Cc1nc2c(c(N3CCOc4ccc(-c5ccc(Cl)c(C(N)=O)c5)cc4C3)n1)CC(C)(C)CC2 [Example 428, 2-chloro-5-(4-{2-[(dimethylamino)methyl]-6,6-dimethyl-5,6,7,8-tetrahydroquinazolin-4-yl}-2,3,4,5-tetrahydro-1,4-benzoxazepin-7-yl)benzamide] | ≥ 2
17 | Cc1cccc(Cl)c1S(=O)(=O)Nc1cc(-c2ccc3c(c2)CN(c2ncnc4c2CC(C)(C)CC4)CCO3)cnc1Cl [Example 429, 2-chloro-N-{2-chloro-5-[4-(6,6-dimethyl-5,6,7,8-tetrahydroquinazolin-4-yl)-2,3,4,5-tetrahydro-1,4-benzoxazepin-7-yl]pyridin-3-yl}-6-methylbenzenesulfonamide] | 0.25 to 1
18 | CC1(C)CCc2ncnc(N3CCOc4ccc(-c5cnc(N)c(S(=O)(=O)CCCO)c5)cc4C3)c2C1 [Example 430, 3-({2-amino-5-[4-(6,6-dimethyl-5,6,7,8-tetrahydroquinazolin-4-yl)-2,3,4,5-tetrahydro-1,4-benzoazepin-7-yl]pyridin-3-yl}sulfonyl)propan-1-ol] | 0.01 to 0.05
19 | CC1(C)CCc2ncnc(N3CCOc4ccc(-c5cnc(N)c(S(=O)(=O)CC(O)CO)c5)cc4C3)c2C1 (stereo not shown) [Example 431, 3-({2-amino-5-[4-(6,6-dimethyl-5,6,7,8-tetrahydroquinazolin-4-yl)-2,3,4,5-tetrahydro-1,4-benzoxazepin-7-yl]pyridin-3-yl}sulfonyl)propane-1,2-diol] | 0.01 to 0.05
20 | CC1(C)CCc2ncnc(N3CCOc4ccc(-c5cnc(N)c(S(=O)(=O)N6CC7(CNC7)C6)c5)cc4C3)c2C1 [Example 432, 3-(2,6-diazaspiro[3.3]hept-2-ylsulfonyl)-5-[4-(6,6-dimethyl-5,6,7,8-tetrahydroquinazolin-4-yl)-2,3,4,5-tetrahydro-1,4-benzoxazepin-7-yl]pyridin-2-amine] | 0.01 to 0.05
21 | CC1(C)CCc2ncnc(N3CCOc4ccc(-c5cnc(N)c(S(=O)(=O)N6CCC6)c5)cc4C3)c2C1 [Example 434, 3-(azetidin-1-ylsulfonyl)-5-[4-(6,6-dimethyl-5,6,7,8-tetrahydroquinazolin-4-yl)-2,3,4,5-tetrahydro-1,4-benzoxazepin-7-yl]pyridine-2-amine] | 0.01 to 0.05
22 | CC1(C)CCc2ncnc(N3CCOc4ccc(-c5cnc(N)c(S(=O)(=O)N6C[C@H]7C[C@@H]6CN7)c5)cc4C3)c2C1 [Example 435, 2-[(1R,4R)-2,5-diazabicyclo[2.2.1]hept-2-ylsulfonyl]-5-[4-(6,6-dimethyl-5,6,7,8-tetrahydroquinazolin-4-yl)-2,3,4,5-tetrahydro-1,4-benzoxazepin-7-yl]pyridin-2-amine] | 0.01 to 0.05
23 | CC1(C)CCc2ncnc(N3CCOc4ccc(-c5cnc(N)c(S(=O)(=O)N6C[C@@H]7C[C@H]6CN7)c5)cc4C3)c2C1 [Example 436, 3-[(1S,4S)-2,5-diazabicyclo[2.2.1]hept-2-ylsulfonyl]-5-[4-(6,6-dimethyl-5,6,7,8-tetrahydroquinazolin-4-yl)-2,3,4,5-tetrahydro-1,4-benzoxazepin-7-yl]pyridin-2-amine] | ≤ 0.01
24 | CC[C@H]1CCc2c(ncnc2N2CCOc3ccc(-c4cnc(N)c(S(=O)(=O)N5C[C@@H]6C[C@H]5CN6)c4)cc3C2)C1 [Example 437, 3-[(1S,4S)-2,5-diazabicyclo[2.2.1]hept-2-ylsulfonyl]-5-{4-[(7S)-7-ethyl-5,6,7,8-tetrahydroquinazolin-4-yl]-2,3,4,5-tetrahydro-1,4-benzoxazepin-7-yl}pyridin-2-amine] | 0.01 to 0.05
25 | CC1(C)CCc2ncnc(N3CCOc4ccc(-c5cnc(N)c(S(=O)(=O)N6CC(F)(F)C6)c5)cc4C3)c2C1 [Example 438, 3-[(3,3-difluoroazetidin-1-yl)sulfonyl]-5-[4-(6,6-dimethyl-5,6,7,8-tetrahydroquinazolin-4-yl)-2,3,4,5-tetrahydro-1,4-benzoxazepin-7-yl]pyridin-2-amine] | 0.05 to 0.25
